From patent publication US9260504B2, “N- and C-terminal substituted antagonistic analogs of GH-RH” (University of Miami, priority 2008, dated 2016)

Assays:
[1] = test system: NCI-N87 human gastric cancer; assay: NCI-N87 human gastric cancer xenografts in nude mice; type: in vivo; conditions: 10 μg/day s.c.
Procedure: NCI-N87 cancers were transplanted s.c. into both flank areas of 30 female nude mice. The mice were randomly assigned into 4 experimental groups with 6 to 9 animals in each group and received single daily injections for 77 days as follows: 1. Control (vehicle solution); 2. JMR-132 (10 μg/day s.c.); 3. Peptide 1109 (10 μg/day s.c.); 4. Peptide 11479 (10 μg/day s.c.). Tumor volumes were measured once a week. The experiment was ended on day 77 by sacrificing the mice under Isoflurane anesthesia. Resulting tumors were cleaned, weighed, and snap-frozen until further analyses. Statistical analyses of the measurement results were done by two-tailed t-test, p<0.05 being considered significant. Data are presented as the means±S.E.

[2] = test system: H-460 human non-small cell lung cancer; assay: H-460 human non-SCLC xenografts in nude mice, Experiment 3; type: in vivo; conditions: 28 days
Procedure: Male nude mice were implanted s.c. with 3 mm^3 pieces of H-460 human non-SCLC tumor tissue on both flanks. When tumors had grown to a mean volume of approximately 90 mm^3, the mice were randomly assigned into 8 experimental groups with 8 to 10 animals in each group and received single daily injections for 28 days as follows: 1. Control (vehicle solution); 2. JMR-132 (10 μg/day s.c.); 3. Peptide 11123 (5 μg/day s.c.); 4. Peptide 11125 (5 μg/day s.c.); 5. Peptide 11307 (5 μg/day s.c.); 6. Peptide 11317 (5 μg/day s.c.); 7. Peptide 11473 (5 μg/day s.c.); 8. Peptide 11485 (5 μg/day s.c.). Tumor volumes were measured once a week. The experiment was ended on day 28 by sacrificing the mice under Isoflurane anesthesia. Resulting tumors were cleaned, weighed, and snap-frozen until further analyses. Statistical analyses of the measurement results were done by two-tailed t-test, p<0.05 being considered significant.

Substance: [(Ac-Ada)^0-Tyr^1, D-Arg^2, (Phe(F)5)^6, Ala^8, Har^9, Tyr(Me)^10, His^11, Orn^12, Abu^15, His^20, Orn^21, Nle^27, D-Arg^28, Har^29]hGH-RH(1-29)NH2 [Peptide 11479]
- Number of regressing tumors ([1]; 77 days): 1
- Tumor growth after 77 days (%) ([1]; 77 days, means±S.E.): 235 ± 48 %
- Tumor weights ([1]; day 77, means±S.E.): 144 ± 41 mg
- Tumor doubling time ([1]; calculated without the regressing tumors): 156.7 ± 55.7 days

Substance: [(Ac-Ada)^0-Tyr^1, D-Arg^2, Cpa^6, Ala^8, Har^9, Tyr(Me)^10, His^11, Abu^15, His^20, Nle^27, D-Arg^28, Har^29-Ada^30]hGH-RH(1-29)NH2 [Peptide 11317]
- Tumor growth inhibition after 4 weeks (%) ([2]; 5 μg/day s.c.): 41.00%
- Inhibition of H-460 lung tumor growth compared with reference peptide JMR-132 ([2]; 5 μg/day vs JMR-132 10 μg/day): more potently inhibited the growth of H-460 lung tumors than the reference peptide JMR-132
